According to US8933056B2, “Soft protease inhibitors and pro-soft forms thereof” (Trustees of Tufts College, priority 2005, dated 2015):
Read-outs that look alike come from different tables or passages of the source.

Key:
Proteasome = Proteasome (Homo sapiens, UniProt P28074); assay: X-boroLeu proteasome inhibition: thioxamide v. oxoamide; type: biochemical; conditions: IC50 ph 7.6 to ph 2.0
DP-IV = DP-IV (Sus scrofa (Pig), UniProt P22411); assay: DPP IV inhibition: thioxamide v. oxoamide; type: biochemical, porcine; conditions: for Inactivation Index: IC50 pH 8.0 to pH 2.0
Chain of DP-IV (P22411 whole entry): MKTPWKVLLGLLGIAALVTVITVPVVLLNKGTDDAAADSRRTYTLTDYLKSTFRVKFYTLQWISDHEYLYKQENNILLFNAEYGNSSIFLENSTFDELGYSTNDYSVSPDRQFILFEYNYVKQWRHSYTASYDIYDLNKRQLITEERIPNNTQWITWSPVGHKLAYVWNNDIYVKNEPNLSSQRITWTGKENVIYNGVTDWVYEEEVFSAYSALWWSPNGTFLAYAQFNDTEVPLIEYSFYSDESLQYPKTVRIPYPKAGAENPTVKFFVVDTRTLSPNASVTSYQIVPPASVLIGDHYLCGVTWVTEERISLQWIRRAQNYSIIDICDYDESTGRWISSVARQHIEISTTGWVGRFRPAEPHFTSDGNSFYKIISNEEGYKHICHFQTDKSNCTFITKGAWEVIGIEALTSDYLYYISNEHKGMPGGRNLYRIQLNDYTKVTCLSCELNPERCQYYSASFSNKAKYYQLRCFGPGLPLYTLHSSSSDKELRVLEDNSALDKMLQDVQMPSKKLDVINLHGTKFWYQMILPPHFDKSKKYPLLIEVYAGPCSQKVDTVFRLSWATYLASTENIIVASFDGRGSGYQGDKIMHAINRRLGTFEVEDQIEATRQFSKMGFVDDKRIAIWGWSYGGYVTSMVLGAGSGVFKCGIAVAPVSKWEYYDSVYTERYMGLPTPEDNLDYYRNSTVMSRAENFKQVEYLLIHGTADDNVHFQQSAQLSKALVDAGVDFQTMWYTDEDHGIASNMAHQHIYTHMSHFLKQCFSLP
Procedure: The inhibitory activity of a compound may be tested easily. […] A compound is then screened for its ability to inhibit the protease activity of DP-IV with respect to a […] substrate. […] Briefly, a reaction containing 50 micromol sodium Hepes (pH 7.8), 10 micromol Ala-Pro-p-nitroanilide, 6 milliunits of DP-IV, and 2% (vol/vol) dimethylformamide in a total volume of 1.0 mL. The reaction was initiated by the addition of enzyme and reaction rates were measured at 25 C; formation of reaction product (para-nitroanilide) in the presence and absence of a test compound can be detected photometrically, e.g., at 410 nm.

DP9 = DP9 (Homo sapiens (Human), UniProt Q86TI2); assay: Selectivity for dipeptidyl peptidase isoforms, DP9; type: biochemical; conditions: for DP9 Ratio: IC50 pH 7.8 to pH 2
Chain of DP9 (Q86TI2 whole entry, species assumed, canonical isoform): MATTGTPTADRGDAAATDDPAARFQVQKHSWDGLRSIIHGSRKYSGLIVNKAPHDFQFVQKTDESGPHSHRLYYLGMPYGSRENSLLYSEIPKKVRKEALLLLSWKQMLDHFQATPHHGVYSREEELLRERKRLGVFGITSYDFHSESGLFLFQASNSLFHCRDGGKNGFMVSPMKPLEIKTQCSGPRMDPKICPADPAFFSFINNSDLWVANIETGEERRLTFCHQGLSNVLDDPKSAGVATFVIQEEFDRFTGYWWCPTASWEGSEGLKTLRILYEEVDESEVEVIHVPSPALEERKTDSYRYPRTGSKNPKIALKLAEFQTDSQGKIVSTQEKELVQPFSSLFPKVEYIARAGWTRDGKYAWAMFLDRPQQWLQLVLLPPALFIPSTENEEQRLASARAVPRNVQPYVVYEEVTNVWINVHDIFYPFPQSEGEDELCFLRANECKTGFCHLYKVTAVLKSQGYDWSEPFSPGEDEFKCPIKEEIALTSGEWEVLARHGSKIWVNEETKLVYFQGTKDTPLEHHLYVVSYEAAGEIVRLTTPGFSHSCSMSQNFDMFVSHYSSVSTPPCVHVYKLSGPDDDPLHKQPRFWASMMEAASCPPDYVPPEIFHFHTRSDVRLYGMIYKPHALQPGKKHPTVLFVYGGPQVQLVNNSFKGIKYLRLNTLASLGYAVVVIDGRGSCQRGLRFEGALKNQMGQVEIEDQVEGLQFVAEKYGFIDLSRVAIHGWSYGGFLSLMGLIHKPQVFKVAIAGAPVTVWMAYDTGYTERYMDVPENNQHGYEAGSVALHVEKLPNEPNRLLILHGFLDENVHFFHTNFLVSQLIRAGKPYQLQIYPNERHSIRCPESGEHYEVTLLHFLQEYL
Procedure: (§1) The inhibitor solution is prepared by dissolving 3-5 mg of inhibitor in pH 2 solution (0.01 N HCl), such that the concentration of the solution is equal to 1 mg/10 mL. A 10 μL sample of this solution is then added to 990 μL of pH 8 buffer (0.1 M HEPES, 0.14 M NaCl), and the solution is allowed to stand at room temperature overnight.
(§2) The substrate solution is prepared by dissolving 2.0 mg of L-alanyl-L-proline-para-nitroanilide into 20 mL of pH 8 buffer.
(§3) 250 μL of enzyme solution is added to well #B1 to #H1, #A2 to #H2, and #A3 to #H3 of a 96 well plate, while well #A1 receives 250 μL of pH 8 buffer instead of enzyme solution.
(§4) A 1:10 dilution is then performed by adding inhibitor solution to #A5 and the solution is mixed well before transferring 10 μL of this solution from #A5 to #B5. The solution in #B5 is then mixed well before transferring 10 μL of this solution from #B5 to #C5. The solution in #C5 is then mixed well before transferring 10 μL of this solution from #C5 to #D5. The solution in #D5 is then mixed well before transferring 10 μL of this solution from #D5 to #E5. The solution in #E5 is then mixed well before transferring 10 μL of this solution from #E5 to #F5. The solution in #F5 is then mixed well before transferring 10 μL of this solution from #F5 to #G5. The solution in #G5 is then mixed well before transferring 10 μL of this solution from #G5 to #H5.
(§5) A 30 μL aliquot is then transferred from #H5 to #H3 for row H, and the contents are mixed well. The analogous procedure is repeated for rows G, F, E, D, C, B, and A sequentially. The plate is then shaken on a plate shaker for 5 min before allowing the plate to incubate at room temperature for an additional 5 min.
(§6) Once the plate has been allowed to incubate, 30 μL of substrate is added to each well except well #A1. […] The absorbance is then immediately read at a wavelength of 410 nm.
(§7) In this example, the assay is conducted for DPIV and DP8 or DP9. The ratio of IC50 values for each tested compound is calculated in order to determine the selectivity for the DPIV isoform. […]

DPPIV = DPPIV (Homo sapiens (Human), UniProt P27487); assay: DPIV inhibition assay (Examples 2 and 3); type: biochemical; conditions: for DPPIV Ratio: IC50 pH 7.8 to pH 2
Chain of DPPIV (P27487 whole entry, species assumed): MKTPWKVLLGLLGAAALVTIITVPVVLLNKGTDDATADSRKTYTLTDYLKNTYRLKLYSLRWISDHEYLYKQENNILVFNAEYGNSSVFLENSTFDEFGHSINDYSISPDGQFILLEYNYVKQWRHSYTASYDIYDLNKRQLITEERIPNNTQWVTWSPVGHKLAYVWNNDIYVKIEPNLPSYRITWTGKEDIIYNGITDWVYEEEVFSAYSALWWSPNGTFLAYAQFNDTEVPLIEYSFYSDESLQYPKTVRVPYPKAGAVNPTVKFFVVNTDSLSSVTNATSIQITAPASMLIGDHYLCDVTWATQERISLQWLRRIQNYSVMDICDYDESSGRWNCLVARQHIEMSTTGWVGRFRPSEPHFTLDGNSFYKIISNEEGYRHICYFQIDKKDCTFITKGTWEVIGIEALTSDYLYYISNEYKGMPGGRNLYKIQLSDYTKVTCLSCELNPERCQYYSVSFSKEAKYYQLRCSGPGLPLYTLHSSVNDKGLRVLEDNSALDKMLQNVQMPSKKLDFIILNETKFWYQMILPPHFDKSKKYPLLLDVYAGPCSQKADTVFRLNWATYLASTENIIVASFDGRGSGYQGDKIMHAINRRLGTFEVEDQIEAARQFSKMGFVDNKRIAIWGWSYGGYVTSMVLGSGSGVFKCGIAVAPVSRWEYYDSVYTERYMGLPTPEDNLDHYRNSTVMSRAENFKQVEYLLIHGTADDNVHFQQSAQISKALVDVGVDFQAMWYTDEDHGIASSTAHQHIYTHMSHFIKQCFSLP
Procedure: as §1, §2, §3, §4, §5, §6, §7

DP8 = DP8 (Homo sapiens (Human), UniProt Q6V1X1); assay: Selectivity for dipeptidyl peptidase isoforms, DP8; type: biochemical; conditions: for DP8 Ratio: IC50 pH 7.8 to pH 2
Chain of DP8 (Q6V1X1 whole entry, species assumed, canonical isoform): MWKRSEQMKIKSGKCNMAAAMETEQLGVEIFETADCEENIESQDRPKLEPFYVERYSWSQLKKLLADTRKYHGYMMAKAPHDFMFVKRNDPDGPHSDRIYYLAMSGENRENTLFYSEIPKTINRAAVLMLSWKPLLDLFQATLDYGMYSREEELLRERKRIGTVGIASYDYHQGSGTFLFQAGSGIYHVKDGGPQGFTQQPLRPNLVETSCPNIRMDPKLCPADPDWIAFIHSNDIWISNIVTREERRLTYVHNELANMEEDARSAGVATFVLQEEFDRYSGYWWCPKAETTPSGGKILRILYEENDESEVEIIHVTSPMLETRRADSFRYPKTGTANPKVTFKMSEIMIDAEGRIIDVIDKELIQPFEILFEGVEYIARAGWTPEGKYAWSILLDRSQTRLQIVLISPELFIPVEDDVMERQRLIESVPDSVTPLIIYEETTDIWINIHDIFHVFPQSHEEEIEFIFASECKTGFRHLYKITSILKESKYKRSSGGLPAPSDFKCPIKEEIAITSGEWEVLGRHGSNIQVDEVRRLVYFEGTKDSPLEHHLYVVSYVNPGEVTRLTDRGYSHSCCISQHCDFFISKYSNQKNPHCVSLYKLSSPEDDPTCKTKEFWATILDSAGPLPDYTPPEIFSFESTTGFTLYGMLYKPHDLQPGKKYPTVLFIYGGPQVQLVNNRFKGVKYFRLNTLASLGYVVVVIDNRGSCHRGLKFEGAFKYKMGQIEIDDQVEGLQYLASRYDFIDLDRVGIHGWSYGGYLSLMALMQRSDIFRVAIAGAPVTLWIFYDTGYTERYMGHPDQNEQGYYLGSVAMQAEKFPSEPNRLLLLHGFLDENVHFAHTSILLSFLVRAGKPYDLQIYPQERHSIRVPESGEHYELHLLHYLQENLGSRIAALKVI
Procedure: as §1, §2, §3, §4, §5, §6, §7

[1] = pH 2.0, read-out: IC50 (pH 2.0)
[2] = pH 8.0, read-out: IC50 (pH 8.0)
[3] = pH 7.8, read-out: IC50s DP9 pH 7.8
[4] = pH 2, read-out: IC50s DPPIV pH 2
[5] = pH 7.8, read-out: IC50s DPPIV pH 7.8
[6] = pH 7.8, read-out: IC50s DP8 pH 7.8

Chain of Proteasome (P28074 60-263 limits assumed): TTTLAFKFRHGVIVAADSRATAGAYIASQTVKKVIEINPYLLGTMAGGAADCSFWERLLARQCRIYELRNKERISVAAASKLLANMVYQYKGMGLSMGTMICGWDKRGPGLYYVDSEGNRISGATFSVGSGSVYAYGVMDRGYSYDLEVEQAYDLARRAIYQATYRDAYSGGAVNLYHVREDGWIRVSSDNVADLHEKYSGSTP

Compound	Inactivation Index (Proteasome)	Inactivation Index (DP-IV)	IC50 (DP-IV; [1])	IC50 (DP-IV; [2])	also measured
CC(C)C[C@H](NC(=S)CN)B(O)O [Gly-boroLeu Thioxamide]	20				
CC(C)C[C@H](NC(=O)[C@H](C)N)B(O)O [Ala-boroLeu, reference compound]	3.2				
N[C@@H](CCCC(=O)O)C(=O)N1CCC[C@H]1B(O)O [Aad-boroPro, reference compound]		1,600	4.5 nM	7400 nM	
OB(O)[C@@H]1CCCN1C(=S)CNCc1ccccc1 [N-(Benzyl)-Gly-boroPro Thioxamide]		7.1	24 nM	170 nM	
N[C@@H](CC(=O)O)C(=S)N1CCC[C@H]1B(O)O [Asp-boroPro Thioxamide]		1,700	17 nM	28000 nM	
Pro-boroAla (thioxam)					DP9 Ratio (DP9): 1.3; Ratio DP9 To DPIV (pH 2) (DP9; pH 2): 1.1; IC50 (DP9; pH 2, read-out: IC50s DP9 pH 2): 85 nM; IC50 (DP9; [3]): 110 nM; DPPIV Ratio (DPPIV): 4.1; IC50 (DPPIV; [4]): 76 nM; IC50 (DPPIV; [5]): 310 nM; DP8 Ratio (DP8): 2.2; Ratio DPP8 to DPIV (pH 2) (DP8; pH 2): 1.8; IC50 (DP8; pH 2, read-out: IC50s DP8 pH 2): 140 nM; IC50 (DP8; [6]): 310 nM
CC(C)[C@H](N)C(=S)N[C@@H](C)B(O)O [Val-boroAla Thioxamide]		3.0	73 nM	220 nM	
C[C@H](NC(=O)[C@H](C)N)B(O)O [Ala-boroAla, reference compound]		7.0	63 nM	440 nM	
CC(C)C[C@H](NC(=O)CNC(=S)c1cnccn1)B(O)O [N-(Pyrazine-2-carbothio)-Gly-boroLeu]	4.5				
N[C@@H](CCC(=O)O)C(=S)N1CCC[C@H]1B(O)O [Glu-boroPro Thioxamide]		190	4.6 nM	890 nM	DP9 Ratio (DP9): 180; Ratio DP9 To DPIV (pH 2) (DP9; pH 2): 1.9; IC50 (DP9; pH 2, read-out: IC50s DP9 pH 2): 8.7 nM; IC50 (DP9; [3]): 1800 nM; DPPIV Ratio (DPPIV): 190; IC50 (DPPIV; [4]): 4.6 nM; IC50 (DPPIV; [5]): 890 nM; DP8 Ratio (DP8): 130; Ratio DPP8 to DPIV (pH 2) (DP8; pH 2): 3.4; IC50 (DP8; pH 2, read-out: IC50s DP8 pH 2): 16 nM; IC50 (DP8; [6]): 2000 nM
N=C(N)NCCC[C@H](N)C(=S)N1CCC[C@H]1B(O)O [Arg-boroPro Thioxamide]			1.2 nM		IC50 (pH 8.0) (DP-IV; pH 8.0, result in words): No inhibition
NCC(=O)N1CCC[C@H]1B(O)O [Gly-boroPro, reference compound]		7,000	1 nM	7000 nM	
Chg-boroPro [reference compound]		380	1 nM	380 nM	
CC(C)C[C@H](NC(=S)CNC(=S)c1cnccn1)B(O)O [Pyz-Gly-boroLeu Perthioxamide]	620				
CC(C)C[C@H](NC(=S)[C@H](C)N)B(O)O [Ala-boroLeu Thioxamide]	110				
CC(C)C[C@H](NC(=O)[C@@H](N)Cc1ccccc1)B(O)O [Phe-boroLeu (free Velcade), Phe-boroLeu, reference compound]	7.5				
C[C@H](NC(=S)[C@H](C)N)B(O)O [Ala-boroAla Thioxamide]		1.2	6500 nM	7700 nM	
